Earlier results in US7056534B2, “Coated potassium chloride granules and tablets” (Upsher-Smith Laboratories, Inc., priority 2001, dated 2006).
Read-outs that look alike come from different tables or passages of the source.

[Cl-].[K+] [Potassium chloride]
Solubility (acetone): insoluble | Volume of solvent in which 1 gram dissolves (boiling water): 1.8 mL | Solubility (ether): insoluble | Volume of solvent in which 1 gram dissolves (ethyl alcohol): about 250 ml | Volume of solvent in which 1 gram dissolves (glycerol): 14 mL | Volume of solvent in which 1 gram dissolves (water): 2.8 mL
